From the supplement of paper PMC10307832

Tests used:
Experiment in all cases: relative viability (nuclei count vs DMSO), 5 days (fraction); higher = more cells survive
Seliciclib + Lapatinib = compound: CC[C@H](CO)Nc1nc(NCc2ccccc2)c2ncn(C(C)C)c2n1 [Seliciclib] + CS(=O)(=O)CCNCc1ccc(-c2ccc3ncnc(Nc4ccc(OCc5cccc(F)c5)c(Cl)c4)c3c2)o1 [Lapatinib] (partner 2 µM)
In short: (§1)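 For relative viability, nuclei counts in treated wells were divided by those in vehicle wells. Lung cancer cell lines had been pin-tool dosed in 1536-well plates the day after seeding and cultured for 5 days, then fixed and stained in one step (final 0.05% Triton X-100, 1% formaldehyde, 1 ug/ml Hoechst) and imaged at 4×. Doses were one drug alone or a fixed anchor-drug dose plus five library-drug doses (not always all listed) in √10 steps, and values are duplicate-plate medians.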

Seliciclib + Olaparib = compound: CC[C@H](CO)Nc1nc(NCc2ccccc2)c2ncn(C(C)C)c2n1 [Seliciclib] + O=C(c1cc(Cc2n[nH]c(=O)c3ccccc23)ccc1F)N1CCN(C(=O)C2CC2)CC1 [Olaparib] (partner 8 µM)
In short: as §1

Seliciclib + Phenformin = compound: CC[C@H](CO)Nc1nc(NCc2ccccc2)c2ncn(C(C)C)c2n1 [Seliciclib] + N=C(N)NC(=N)NCCc1ccccc1 [Phenformin] (partner 250 µM)
In short: as §1

Seliciclib + Trametinib = compound: CC[C@H](CO)Nc1nc(NCc2ccccc2)c2ncn(C(C)C)c2n1 [Seliciclib] + CC(=O)Nc1cccc(-n2c(=O)n(C3CC3)c(=O)c3c(Nc4ccc(I)cc4F)n(C)c(=O)c(C)c32)c1 [Trametinib] (partner 0.02 µM)
In short: as §1

| Cell Line | relative viability (Seliciclib + Lapatinib; first compound 0.08 µM) | relative viability (Seliciclib + Lapatinib; first compound 0.253 µM) | relative viability (Seliciclib + Lapatinib; first compound 0.8 µM) | relative viability (Seliciclib + Lapatinib; first compound 2.53 µM) | relative viability (Seliciclib + Lapatinib; first compound 8 µM) | relative viability (Seliciclib + Olaparib; first compound 0.08 µM) | relative viability (Seliciclib + Olaparib; first compound 0.253 µM) | relative viability (Seliciclib + Olaparib; first compound 0.8 µM) | relative viability (Seliciclib + Olaparib; first compound 2.53 µM) | relative viability (Seliciclib + Olaparib; first compound 8 µM) | relative viability (Seliciclib + Phenformin; first compound 0.08 µM) | relative viability (Seliciclib + Phenformin; first compound 0.253 µM) | relative viability (Seliciclib + Phenformin; first compound 0.8 µM) | relative viability (Seliciclib + Phenformin; first compound 2.53 µM) | relative viability (Seliciclib + Phenformin; first compound 8 µM) | relative viability (Seliciclib + Trametinib; first compound 0.08 µM) | relative viability (Seliciclib + Trametinib; first compound 0.253 µM) | relative viability (Seliciclib + Trametinib; first compound 0.8 µM) | relative viability (Seliciclib + Trametinib; first compound 2.53 µM) | relative viability (Seliciclib + Trametinib; first compound 8 µM) |
| --- | --- | --- | --- | --- | --- | --- | --- | --- | --- | --- | --- | --- | --- | --- | --- | --- | --- | --- | --- | --- |
| NCI-H3122 | 0.938 | 1.08 | 0.91 | 1.04 | 0.949 | 0.632 | 0.589 | 0.62 | 0.697 | 0.615 | 0.374 | 0.439 | 0.368 | 0.384 | 0.353 | 0.225 | 0.136 | 0.234 | 0.211 | 0.221 |
| NCI-H1651 | 0.807 | 0.875 | 0.883 | 0.864 | 0.702 | 0.195 | 0.182 | 0.201 | 0.188 | 0.169 | 0.339 | 0.366 | 0.317 | 0.277 | 0.249 | 0.732 | 0.783 | 0.796 | 0.793 | 0.796 |
| NCI-H838 | 0.967 | 0.92 | 0.926 | 0.868 | 0.362 | 0.729 | 0.765 | 0.762 | 0.773 | 0.635 | 0.59 | 0.559 | 0.561 | 0.461 | 0.329 | 0.516 | 0.485 | 0.523 | 0.449 | 0.451 |
| NCI-H596 | 0.969 | 0.831 | 1.1 | 1.21 | 0.939 | 0.724 |  | 0.695 | 0.781 | 0.764 | 0.66 |  | 0.83 | 0.784 | 0.595 | 0.814 |  | 0.75 | 0.837 | 0.58 |
| SK-LU-1 | 0.847 | 0.971 | 0.812 | 0.775 | 0.666 | 0.411 | 0.543 | 0.478 | 0.404 | 0.34 | 0.532 | 0.582 | 0.647 | 0.435 | 0.413 | 0.548 | 0.426 | 0.54 | 0.601 | 0.415 |
| NCI-H650 | 0.953 | 1.12 | 1.1 |  | 0.765 | 0.354 | 0.368 | 0.417 | 0.305 | 0.37 | 0.48 | 0.467 | 0.532 | 0.257 | 0.46 | 0.96 | 1.08 | 1.01 | 0.863 | 0.877 |
| NCI-H2170 | 0.272 | 0.274 | 0.269 | 0.259 | 0.268 | 0.521 |  | 0.582 | 0.654 | 0.609 | 0.393 | 0.489 | 0.354 | 0.436 | 0.411 | 0.85 |  | 0.884 | 0.927 | 0.888 |
| NCI-H1792 | 0.947 | 0.889 | 0.855 | 0.776 | 0.846 | 0.338 | 0.341 | 0.399 |  | 0.322 | 0.421 | 0.308 | 0.306 |  | 0.329 | 0.353 | 0.329 | 0.408 |  | 0.372 |
| NCI-H1355 | 0.961 | 0.834 | 0.94 | 0.927 | 0.929 | 0.715 | 0.697 | 0.727 | 0.779 | 0.635 | 0.436 | 0.443 | 0.433 | 0.423 | 0.435 | 0.391 | 0.336 | 0.477 | 0.474 | 0.415 |
| SW 1573 | 1.09 | 1.06 | 1.02 | 1.1 | 0.869 | 0.473 | 0.487 | 0.527 | 0.471 | 0.425 | 0.373 | 0.24 | 0.346 | 0.384 | 0.311 | 0.561 | 0.48 | 0.566 | 0.57 | 0.341 |
| NCI-H2347 | 0.867 | 0.858 | 0.835 | 0.974 | 0.905 | 0.557 | 0.604 | 0.518 | 0.579 | 0.557 | 0.536 | 0.397 | 0.319 | 0.298 | 0.408 | 0.259 | 0.323 | 0.331 | 0.278 | 0.279 |
| LCLC-97TM1 | 1.12 | 1.71 | 1.36 |  | 0.364 | 0.453 | 0.47 | 0.322 | 0.381 | 0.265 | 0.467 | 0.354 | 0.493 | 0.138 | 0.381 | 0.244 | 0.173 | 0.226 | 0.178 | 0.155 |
| EMC-BAC-2 | 0.891 | 0.847 | 0.953 | 0.666 | 0.781 | 0.493 | 0.494 | 0.59 | 0.447 | 0.446 | 0.505 | 0.515 | 0.524 | 0.436 | 0.479 | 0.883 | 0.934 | 0.809 | 0.721 | 0.778 |
| NCI-H1975 | 0.867 | 0.834 | 0.868 | 0.759 | 0.716 | 0.774 | 0.605 | 0.768 | 0.865 | 0.523 | 0.386 | 0.335 | 0.392 | 0.312 | 0.236 | 0.383 | 0.215 | 0.439 | 0.266 | 0.334 |
| BEN | 0.826 | 0.525 | 0.772 | 0.677 | 0.629 | 0.898 | 1.01 | 1.16 | 1.01 | 0.815 | 0.268 | 0.249 | 0.125 | 0.284 | 0.227 | 0.976 | 0.809 | 1.1 | 0.991 | 1.04 |
| SK-MES-1 | 0.476 | 0.397 | 0.404 | 0.489 | 0.446 | 0.764 | 0.726 | 0.647 | 0.564 | 0.342 | 0.686 | 0.755 | 0.619 | 0.672 | 0.635 | 0.478 | 0.482 | 0.55 | 0.602 | 0.504 |
| NCI-H23 | 0.97 | 1.08 | 1.19 | 0.657 | 0.851 | 0.346 | 0.31 | 0.377 | 0.269 | 0.262 | 0.83 | 0.809 | 0.784 | 0.672 | 0.603 | 0.428 | 0.343 | 0.406 | 0.297 | 0.308 |
